Experimental data taken from patent publication US20060178352A1, “Use of androgens to reduce the likelihood of acquiring or to treat skin aging” (Endorecherche, Inc., priority 2004, published 2006).
Like-named read-outs stand apart in the source and are kept apart here.

Tests used:
[1] = men and women 60-79 years, oral 50 mg once daily, cited from earlier work
mouse dorsal skin = type: in vivo; conditions: for Effect on hypodermal thickness: GDX animals of both sexes, p<0.01; for Dermis % (proportion of skin layer) / Epidermis % (proportion of skin layer) / Hypodermis % (proportion of skin layer) / Dermis T (thickness) / Epidermis T (thickness) / Hypodermis T (thickness): 3 weeks treatment; for Dermis T (thickness) / Epidermis T (thickness) / Hypodermis T (thickness): mean ± SEM
Protocol: (§1) Fifty six adult male and female C57BL6 mice 13-15 weeks of age were obtained from Harlan Laboratory (Indiana, USA). […] Animals of intact and GDX control groups were treated with the vehicle alone during the same period. Six hours after the last treatment, all animals were sacrificed.
Since DHT is known to be poorly active by the oral route, it was injected subcutaneously. To determine the DHT dose, a preliminary dose-range study was performed (see supplementary online material, online Table S1).
After shaving the long hair, the dorsal skin was excised, flattened and immediately immersed in 10% buffered formalin. A sample was embedded in paraffin blocks from which 4 μm sections were cut and routinely stained.
Under the light microscope, measurements were performed using the IMAGE-PRO PLUS (Media Cybernetics, USA). Twenty-five readings were scored from each skin layer of each animal. The epidermal thickness was measured from stratum basale to stratum granulosum (excluding stratum corneum), whereas the dermal thickness was the distance between the epidermis and the hypodermis. Finally, the hypodermal thickness was measured as the distance between the dermis and the panniculus carnosus.

[2] = aged individuals, particularly women >70 years; cited from earlier work
androgen receptor (AR) = test: Immunohistochemistry of androgen receptor in epidermis of mouse dorsal skin; type: in vivo; conditions: GDX males and females, 3 weeks treatment
Protocol: as §1

[3] = GDX females, versus GDX control

Compound: C[C@]12CC[C@H](O)CC1=CC[C@@H]1[C@@H]2CC[C@]2(C)C(=O)CC[C@@H]12 [DHEA, dehydroepiandrosterone]
- Facial skin pigmentation (yellowness) ([1]; 1 year): significantly decreased
- Other components of skin colour (lightness and redness) ([1]; 1 year): remained stable
- Skin surface hydratation ([1]; after 12 months): significantly increased
- Effect on hypodermal thickness (mouse dorsal skin): markedly decreased
- Dermis % (proportion of skin layer) (mouse dorsal skin; GDX female mice): 75.8%
- Epidermis % (proportion of skin layer) (mouse dorsal skin; GDX female mice): 3.2%
- Hypodermis % (proportion of skin layer) (mouse dorsal skin; GDX female mice): 21%
- Dermis T (thickness) (mouse dorsal skin; GDX female mice): 249 ± 11.8^+ μm
- Epidermis T (thickness) (mouse dorsal skin; GDX female mice): 10.5 ± 0.3^+ μm
- Hypodermis T (thickness) (mouse dorsal skin; GDX female mice): 69 ± 4.5^++ μm
- Effect on dermal thickness (in words) (mouse dorsal skin; GDX females): increase
- Increase in dermal thickness (mouse dorsal skin; [3]): 19%
- Increase in epidermal thickness (mouse dorsal skin; GDX females, versus GDX control, p<0.05): 13%
- Dermis % (proportion of skin layer) (mouse dorsal skin; GDX male mice): 92.8%
- Epidermis % (proportion of skin layer) (mouse dorsal skin; GDX male mice): 1.7%
- Hypodermis % (proportion of skin layer) (mouse dorsal skin; GDX male mice): 5.5%
- Dermis T (thickness) (mouse dorsal skin; GDX male mice): 486 ± 28.7 μm
- Epidermis T (thickness) (mouse dorsal skin; GDX male mice): 8.9 ± 0.3 μm
- Hypodermis T (thickness) (mouse dorsal skin; GDX male mice): 29 ± 6.2 μm
- Sebum production [2]: increase

Compound: C[C@]12CCC(=O)C[C@@H]1CC[C@@H]1[C@@H]2CC[C@]2(C)[C@@H](O)CC[C@@H]12 [DHT, 5α-androstane-17β-ol-3-one]
- Effect on hypodermal thickness (mouse dorsal skin): markedly decreased
- Dermis % (proportion of skin layer) (mouse dorsal skin; GDX female mice): 79.5%
- Epidermis % (proportion of skin layer) (mouse dorsal skin; GDX female mice): 2.5%
- Hypodermis % (proportion of skin layer) (mouse dorsal skin; GDX female mice): 18%
- Dermis T (thickness) (mouse dorsal skin; GDX female mice): 307 ± 13.3^++ μm
- Epidermis T (thickness) (mouse dorsal skin; GDX female mice): 9.6 ± 0.2 μm
- Hypodermis T (thickness) (mouse dorsal skin; GDX female mice): 70 ± 4.6^++ μm
- Effect on dermal thickness (in words) (mouse dorsal skin; GDX females): increase
- Increase in dermal thickness (mouse dorsal skin; [3]): 47%
- Dermis % (proportion of skin layer) (mouse dorsal skin; GDX male mice): 93%
- Epidermis % (proportion of skin layer) (mouse dorsal skin; GDX male mice): 2.1%
- Hypodermis % (proportion of skin layer) (mouse dorsal skin; GDX male mice): 4.9%
- Dermis T (thickness) (mouse dorsal skin; GDX male mice): 451 ± 24.1 μm
- Epidermis T (thickness) (mouse dorsal skin; GDX male mice): 10 ± 0.2 μm
- Hypodermis T (thickness) (mouse dorsal skin; GDX male mice): 24 ± 1.9 μm

Compound: C[C@]12CC[C@@H]3c4ccc(O)cc4CC[C@H]3[C@@H]1CC[C@@H]2O [E2]
- Effect on hypodermal thickness (mouse dorsal skin): markedly decreased
- AR labeling / expression in epidermal nuclei (androgen receptor (AR)): weak AR labeling
